Reference: patent US20220233713A1, “SONODYNAMIC THERAPY” (priority 2019, published 2022)
Counter-ions that a name gives are not always drawn.

Tested on: BxPC-3 tumours
Test: In vivo BxPC-3 xenograft model, tumour growth
Parameters: species or system SCID mice
Conditions: 100 μL I.P. injection, Gem HCl 120 mg/kg (scaled clinical dose); FIG. 7
Description: All animals in these studies were treated humanely and in accordance with licensed protocols under the Animals (Scientific Procedures) Act 1986 (UK). BxPc-3 cells were maintained in RPMI 1640 media supplemented with 100 U/mL penicillin, […] streptomycin, and 10% fetal bovine serum (FBS) in a humidified 5% CO2 atmosphere at 37° C. Cells (1×10^6) were re-suspended in Matrigel® and implanted subcutaneously into the rear dorsum of SCID (C.B-17/IcrHan@Hsd-Prkdcscid) mice. Tumours reached treatable size within 3 weeks. Tumour measurements were taken daily using callipers. Once the tumours had reached an average volume of 150 mm^3 animals were randomly assigned into treatment groups. Animals were anaesthetised using isoflurane with medical grade oxygen as the carrier gas. […] As control groups, animals were treated with a 100 μL I.P injection of either (i) gemcitabine hydrochloride (120 mg/kg) or (ii) gemcitabine hydrochloride (120 mg/kg) and PTX (15 mg/kg). Ultrasound was applied directly to the tumour immediately following injection at an ultrasound frequency of 1 MHz, an ultrasound power density of 3.5 W/cm^2 and a duty cycle of 30% for 3.5 min. Tumour volume was measured using callipers and calculated using the formula: V=L×W×H/2.

## Nc1ccn([C@@H]2O[C@H](CO)[C@@H](O)C2(F)F)c(=O)n1 [Gem HCl, gemcitabine hydrochloride]
  tumour growth control: significantly controls tumour growth progression
